Key:
Test in all cases: relative viability (nuclei count vs DMSO), 5 days (fraction); higher = more cells survive
Everolimus + Alpelisib = compound: CO[C@H]1C[C@@H]2CC[C@@H](C)[C@@](O)(O2)C(=O)C(=O)N2CCCC[C@H]2C(=O)O[C@H]([C@H](C)C[C@@H]2CC[C@@H](OCCO)[C@H](OC)C2)CC(=O)[C@H](C)/C=C(\C)[C@@H](O)[C@@H](OC)C(=O)[C@H](C)C[C@H](C)/C=C/C=C/C=C/1C [Everolimus] + Cc1nc(NC(=O)N2CCC[C@H]2C(N)=O)sc1-c1ccnc(C(C)(C)C(F)(F)F)c1 [Alpelisib] (partner 2 µM)
Summary of the method: (§1)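 Relative viability equals treated-well nuclei counts divided by vehicle-well nuclei counts. Counts came from 4× images of lung cancer cell lines grown in 1536-well plates for 5 days after pin-tool dosing on the day after seeding. Dosing used one drug alone or a fixed anchor-drug dose plus five library-drug doses (not always all listed) in √10 steps, and values are medians of duplicate plates.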

Everolimus + Bortezomib = compound: CO[C@H]1C[C@@H]2CC[C@@H](C)[C@@](O)(O2)C(=O)C(=O)N2CCCC[C@H]2C(=O)O[C@H]([C@H](C)C[C@@H]2CC[C@@H](OCCO)[C@H](OC)C2)CC(=O)[C@H](C)/C=C(\C)[C@@H](O)[C@@H](OC)C(=O)[C@H](C)C[C@H](C)/C=C/C=C/C=C/1C [Everolimus] + CC(C)C[C@H](NC(=O)[C@H](Cc1ccccc1)NC(=O)c1cnccn1)B(O)O [Bortezomib] (partner 0.002 µM)
Summary of the method: as §1

Everolimus + Palbociclib = compound: CO[C@H]1C[C@@H]2CC[C@@H](C)[C@@](O)(O2)C(=O)C(=O)N2CCCC[C@H]2C(=O)O[C@H]([C@H](C)C[C@@H]2CC[C@@H](OCCO)[C@H](OC)C2)CC(=O)[C@H](C)/C=C(\C)[C@@H](O)[C@@H](OC)C(=O)[C@H](C)C[C@H](C)/C=C/C=C/C=C/1C [Everolimus] + CC(=O)c1c(C)c2cnc(Nc3ccc(N4CCNCC4)cn3)nc2n(C2CCCC2)c1=O [Palbociclib] (partner 0.5 µM)
Summary of the method: as §1

Everolimus + Dasatinib = compound: CO[C@H]1C[C@@H]2CC[C@@H](C)[C@@](O)(O2)C(=O)C(=O)N2CCCC[C@H]2C(=O)O[C@H]([C@H](C)C[C@@H]2CC[C@@H](OCCO)[C@H](OC)C2)CC(=O)[C@H](C)/C=C(\C)[C@@H](O)[C@@H](OC)C(=O)[C@H](C)C[C@H](C)/C=C/C=C/C=C/1C [Everolimus] + Cc1nc(Nc2ncc(C(=O)Nc3c(C)cccc3Cl)s2)cc(N2CCN(CCO)CC2)n1 [Dasatinib] (partner 0.075 µM)
Summary of the method: as §1

Row | Cell Line | relative viability (Everolimus + Alpelisib; first compound 0.01 µM) | relative viability (Everolimus + Alpelisib; first compound 0.03162 µM) | relative viability (Everolimus + Alpelisib; first compound 0.1 µM) | relative viability (Everolimus + Alpelisib; first compound 0.3162 µM) | relative viability (Everolimus + Alpelisib; first compound 1 µM) | relative viability (Everolimus + Bortezomib; first compound 0.01 µM) | relative viability (Everolimus + Bortezomib; first compound 0.03162 µM) | relative viability (Everolimus + Bortezomib; first compound 0.1 µM) | relative viability (Everolimus + Bortezomib; first compound 0.3162 µM) | relative viability (Everolimus + Bortezomib; first compound 1 µM) | relative viability (Everolimus + Palbociclib; first compound 0.01 µM) | relative viability (Everolimus + Palbociclib; first compound 0.03162 µM) | relative viability (Everolimus + Palbociclib; first compound 0.1 µM) | relative viability (Everolimus + Palbociclib; first compound 0.3162 µM) | relative viability (Everolimus + Palbociclib; first compound 1 µM) | relative viability (Everolimus + Dasatinib; first compound 0.01 µM) | relative viability (Everolimus + Dasatinib; first compound 0.03162 µM) | relative viability (Everolimus + Dasatinib; first compound 0.1 µM) | relative viability (Everolimus + Dasatinib; first compound 0.3162 µM) | relative viability (Everolimus + Dasatinib; first compound 1 µM)
1 | EPLC-272H | 0.797 | 0.577 | 0.592 | 0.586 | 0.638 | 0.573 | 0.589 | 0.517 | 0.638 | 0.558 | 0.307 | 0.323 | 0.284 | 0.286 | 0.259 | 0.235 | 0.266 | 0.213 | 0.227 | 0.276
2 | NCI-H2023 | 0.411 | 0.326 | 0.302 | 0.271 | 0.215 | 0.667 | 0.527 | 0.534 | 0.615 | 0.335 | 0.176 | 0.139 | 0.151 | 0.129 | 0.129 | 0.343 | 0.301 | 0.243 | 0.239 | 0.222
3 | BEN | 0.545 | 0.399 | 0.319 | 0.436 | 0.344 | 0.326 | 0.367 | 0.299 | 0.333 | 0.328 | 0.442 | 0.421 | 0.443 | 0.438 | 0.463 | 0.221 | 0.209 | 0.217 | 0.236 | 0.211
4 | COR-L 105 | 0.585 | 0.526 | 0.489 | 0.567 | 0.518 | 0.593 | 0.476 | 0.445 | 0.565 | 0.584 | 0.465 | 0.368 | 0.365 | 0.344 | 0.343 | 0.25 | 0.262 | 0.211 | 0.253 | 0.233
5 | ABC-1 | 0.682 | 0.617 | 0.636 | 0.678 | 0.539 | 0.272 | 0.3 | 0.304 | 0.285 | 0.293 | 0.468 | – | 0.43 | – | 0.598 | – | 0.393 | 0.413 | 0.455 | 0.513
6 | HCC-15 | 0.763 | 0.678 | 0.685 | 0.608 | 0.605 | 1.01 | 1.09 | 0.968 | 1.06 | 1.07 | 0.73 | 0.79 | 0.627 | 0.697 | 0.76 | 0.667 | 0.546 | 0.417 | 0.561 | 0.489
7 | PC-3 [JPC-3] | 0.881 | 0.828 | 0.793 | 0.789 | 0.747 | 0.703 | 0.798 | 0.846 | 0.774 | 0.889 | 0.579 | 0.497 | 0.548 | – | 0.545 | 0.93 | 0.77 | 0.797 | 0.669 | 0.675
8 | NCI-H1993 | 0.674 | 0.654 | 0.602 | 0.627 | 0.672 | 0.571 | 0.521 | 0.598 | 0.567 | 0.64 | 0.495 | 0.436 | 0.489 | 0.493 | 0.408 | 0.434 | 0.449 | 0.341 | 0.409 | 0.452
9 | NCI-H1915 | 0.806 | 0.833 | 0.784 | 0.732 | 0.723 | 0.917 | 0.864 | 0.977 | 0.79 | 0.882 | 0.398 | 0.347 | 0.316 | 0.378 | 0.334 | 0.285 | 0.231 | 0.208 | 0.247 | 0.206
10 | RERF-LC-KJ | 0.632 | 0.463 | 0.408 | 0.481 | 0.53 | 0.92 | 0.621 | 0.731 | 0.64 | 0.611 | 0.88 | 0.674 | 0.644 | 0.588 | 0.511 | 0.589 | 0.573 | 0.483 | 0.549 | 0.457
11 | LOU-NH91 | 0.64 | 0.551 | 0.543 | 0.564 | 0.52 | 0.504 | 0.521 | 0.488 | 0.521 | 0.518 | 0.533 | 0.561 | 0.55 | 0.54 | 0.547 | 0.486 | 0.467 | 0.476 | 0.434 | 0.449
12 | NCI-H2347 | 0.979 | 0.872 | 0.564 | 0.783 | 0.826 | 0.749 | 0.658 | 0.752 | 0.602 | 0.528 | 0.386 | 0.403 | 0.401 | 0.424 | 0.373 | 0.242 | 0.285 | 0.188 | 0.293 | 0.189
13 | NCI-H2126 | 0.509 | 0.466 | 0.435 | 0.473 | 0.458 | 0.736 | 0.668 | 0.66 | 0.714 | 0.738 | 0.384 | 0.314 | 0.325 | 0.338 | 0.345 | 0.422 | 0.423 | 0.35 | 0.467 | 0.373
14 | HCC-827 | 0.925 | 0.736 | 0.656 | 0.682 | 0.637 | 0.995 | 1.19 | 1.07 | 1.16 | 1.09 | 0.459 | 0.409 | 0.331 | 0.479 | 0.277 | 0.221 | 0.331 | 0.2 | 0.168 | 0.17
15 | NCI-H3122 | 0.587 | 0.549 | 0.325 | 0.59 | 0.363 | 1.05 | 1.16 | 1.06 | 1.08 | 1.01 | 0.166 | 0.178 | 0.169 | 0.17 | 0.133 | 0.584 | 0.0535 | 0.0826 | 0.0717 | 0.112
16 | HOP-62 | 0.683 | 0.551 | 0.517 | 0.518 | 0.429 | 0.493 | 0.662 | 0.399 | 0.489 | 0.574 | 0.418 | 0.304 | 0.268 | 0.294 | 0.268 | 0.394 | 0.424 | 0.352 | 0.382 | 0.387

Source: the supplement of paper PMC10307832
